From PMC10484922, “Discovery of a selective and biologically active low-molecular weight antagonist of human interleukin-1β” (Nature Communications, 2023)
Values joined by “and” are separate entries in the source; they are usually repeats but may differ in a detail not shown here. Equal entries are not always repeated.

What follows are compounds tested against T1, IL-1β (Homo sapiens, UniProt P01584) (assay: SPR binding of compounds to immobilized hIL-1β). Conditions: source data; read-out: SPR Kd, Mean.
Set-up: Mature hIL-1β was expressed in Escherichia coli; made in house; host or cells: Escherichia coli BL21 (DE3), pET17b
Experimental: All SPR experiments were performed with an SPR-32 instrument (Bruker Daltonics SPR, Hamburg, Germany). SPR chips were from XanTec bioanalytics GmbH (Düsseldorf, Germany).
C-terminally avi-tagged hIL-1β protein was immobilized onto a SAHC200M chip with a neutravidin-coated surface. Immobilization was performed with a protein injection of 0.02 mg/ml IL-1β diluted in PBS pH 7.5 (Gibco 70011-036, 10×), 0.05% Tween-20 for 5 min at 10 μl/min. The running buffer for binding studies of compounds was PBS pH 7.4, 0.05% Tween-20, and 2% DMSO. For the correction of small DMSO variations between samples, injections of 6 solvent samples ranging from 1% to 3% DMSO were run. Compound measurements were performed in MICK mode (multiple injection cycles kinetic) with a dose–response of 10 concentrations. Dissociation constants for compounds (KD) were obtained by determining steady-state fit that followed the 1:1 Langmuir model.
Data analysis was performed with the Sierra Analyzer 3.4.0 software from Bruker. Signal intensities were corrected for nonspecific binding to the surface by subtracting intensities from the reference surface from those of the hIL-1β surfaces (first reference subtraction) and by subtracting the buffer injection (second reference subtraction). KD values were carried out by determining a reporting point close to the end of the injection, used for steady-state fit, in addition to a kinetic fit delivering kon- and koff-values; both fitting models followed the 1:1 Langmuir equation.
Supplementary Figure 3. De termination of binding af fi nit ie s for se l ec ted ana l ogues of 1 by SPR. a - d Gr ap hs of exemplary experimen ts are given , where the sat urat ion of hI L-1b immobil ized on a chip was monitored at various concentrations of compound 3, 12, 10, and 11, respectively. Th e saturati on reached at equ ilibri um (insert) was plo tt ed versus the admini stered concentration and the equ ilibri um bin ding constant was derived from a non-li near lea st square fitting routine. e equ ilibri um and f kinetic bin ding of (S)-2 to IL-1b (kon = 1. 15 x 105 M-1 s-1 and koff = 0. 12 s-1).

T1 sequence (P01584 117-269): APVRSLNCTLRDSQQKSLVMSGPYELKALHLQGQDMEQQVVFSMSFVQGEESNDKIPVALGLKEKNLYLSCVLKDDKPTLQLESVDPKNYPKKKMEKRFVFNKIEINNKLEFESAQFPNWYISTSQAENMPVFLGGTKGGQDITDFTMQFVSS

| Structure (SMILES) | Kd [µM] |
| --- | --- |
| Cc1ccc2c(c1)NC(=O)C2(O)c1cc(C(C)C)ccc1O (centres unmarked) [Compound 3] | 173 |

Same assay, conditions: source data; read-out: SPR Kd, individual experiments (Exp1-5)

| Structure (SMILES) | Kd |
| --- | --- |
| Cc1ccc2c(c1)NC(=O)C2(O)c1cc(C(C)C)ccc1O (centres unmarked) [Compound 3] | 174 µM and 171 µM |
| Cc1ccc2c(c1)NC(=O)C2(O)c1cc(Cl)ccc1O (centres unmarked) [Compound 8] | 312 µM (2×) and 158 µM |

Same assay, conditions: steady-state fit, 1:1 Langmuir; read-out: SPR KD

| Structure (SMILES) | Kd [µM] |
| --- | --- |
| Cc1ccc2c(c1)NC(=O)C2(O)c1cc(C(C)C)ccc1O (centres unmarked) [Compound 3] | 172 ± 2 |
| Cc1ccc2c(c1)NC(=O)C2(O)c1cc(Cl)ccc1O (centres unmarked) [Compound 8] | 261 ± 89 |
| Cc1ccc(O)c(C2(O)C(=O)Nc3cc(C(F)(F)F)ccc32)c1 (centres unmarked) [Compound 13] | > 1000 |

Each compound was assayed against T1, IL-1β (assay: 19F-reporter displacement assay with (S)-1 as probe). Conditions: 19F-reporter Ki, protein 10 μM, reporter (S)-1 40 μM.
Assay type: binding
Set-up: Mature hIL-1β was expressed in Escherichia coli; made in house; host or cells: Escherichia coli BL21 (DE3), pET17b
Experimental: Protein and reporter concentrations were 10 and 40 μM, respectively. To account for changes in sample homogeneity, samples contained 1-(2,2,2-trifluoroacetyl)piperidine-4-carboxylic acid as an internal reference for scaling signal intensities. Three concentrations of the competitor were typically measured, and the related displacement of the probe was converted into Ki-values according to Dalvit and Vulpetti[17]. […] This process was automated with FRPipe, an in-house developed Python script (https://github.com/Novartis/FRPipe) that allows for streamlined analysis of such experiments. […] For visual inspection, an overview containing relevant ^19F peaks, fitting curves, and proton spectra was plotted.
Supplementary Figure 2. 13C-NMR and 19F-NMR reporter assays to monitor early structure activity relationships of analogues of 1. a, b Early structure activity relationships monitored by protein-observed and c-f 19F-NMR reporter assays, exemplified for compound 8. a 1H-13C-HMQC spectra of hIL-1b (50 µM) were acquired in the presence (red) and absence (blue) of 500 µM compound and rows were extracted at the w1-frequency of the peak corresponding to Leu60 Cd1H3. b The degree of protein binding was estimated from the ratio I/I0, where I and I0 correspond to the signal in the presence and absence of compound, respectively. c For the assessment of the KI-values, the signal intensity of a reporter molecule (S)-1 was monitored in 19F-transverse relaxation experiments run in the absence and presence of increasing amounts of compound. d All intensities were scaled to the intensity of an internal standard (all signals in panel c and d are shifted on the X-axis for clarity). e KI-values were retrieved from theoretical binding curves calculated for each compound concentration8. f One-dimensional 1H-NMR spectra were recorded for each assay mixture to assess the structural integrity and solubility of the compound in the sample.
(1 picture or pasted object on this page, not shown here)

| Structure (SMILES) | Ki [µM] |
| --- | --- |
| Cc1ccc2c(c1)NC(=O)C2(O)c1cc(C(C)C)ccc1O (centres unmarked) [Compound 3] | 151 ± 78 |
| Cc1ccc2c(c1)N(C)C(=O)C2(O)c1cc(C(C)C)ccc1O (centres unmarked) [Compound 4] | > 1000 |
| COc1ccc(Cl)cc1C1(O)C(=O)Nc2cc(C(F)(F)F)ccc21 (centres unmarked) [Compound 5] | > 1000 |
| Cc1ccc2c(c1)NC(=O)C2(O)c1cc(Cl)ccc1O (centres unmarked) [Compound 8] | 312 ± 124 |

Same assay, conditions: 19F-reporter, individual experiments (Exp1-58), source data

| Structure (SMILES) | Ki |
| --- | --- |
| Cc1ccc2c(c1)NC(=O)C2(O)c1cc(C(C)C)ccc1O (centres unmarked) [Compound 3] | 206 µM and 96 µM |
| Cc1ccc2c(c1)NC(=O)C2(O)c1cc(Cl)ccc1O (centres unmarked) [Compound 8] | 110 µM and 195 µM and 206 µM and 210 µM and 215 µM and 223 µM and 233 µM and 254 µM (2×) and 260 µM (2×) and 120 µM and 261 µM and 262 µM and 268 µM and 278 µM and 281 µM and 282 µM and 283 µM and 287 µM and 292 µM and 293 µM and 133 µM and 295 µM and 309 µM and 317 µM and 325 µM and 331 µM (3×) and 337 µM and 338 µM and 340 µM and 162 µM and 345 µM and 362 µM and 382 µM and 387 µM and 393 µM and 395 µM and 399 µM and 427 µM and 439 µM (2×) and 164 µM and 454 µM and 456 µM and 471 µM and 475 µM and 580 µM and 600 µM and 622 µM (2×) and 86 µM and 183 µM (2×) and 184 µM (2×) |

What follows are compounds tested against T2, IL-1α (Homo sapiens, UniProt P01583) (assay: TR-FRET IL-1α/hIL-1R1 receptor displacement assay). Conditions: read-out: TR-FRET IL-1α IC50.
T2 sequence (P01583 113-271): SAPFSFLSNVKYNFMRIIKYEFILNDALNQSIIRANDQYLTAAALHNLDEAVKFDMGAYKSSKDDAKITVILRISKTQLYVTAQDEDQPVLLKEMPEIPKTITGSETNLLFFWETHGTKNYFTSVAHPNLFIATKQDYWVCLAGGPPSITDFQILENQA
Assay type: biochemical
Experimental: After 1 h incubation at room temperature, hIL-1R1 (1–332; Alexa 647 labeled; 50 nM final concentration) and anti-His-Europium W1024 (Perkin Elmer; Cat.No. AD0401, 1 nM final concentration) were added to a final volume of 10 μl per well. After 1 h of incubation at room temperature, time-resolved fluorescence was measured at λexc = 320 ± 20 nm, λem = 620 ± 25 nm/665 ± 25 nm using a Pherastar FSX plate reader. All experiments were run in triplicates. The data provided a typical saturation-binding curve, and the IC50 values were calculated by fitting the results to the Hill equation using Prism 7.0 and the in-house software Helios.

| Structure (SMILES) | IC50 [µM] |
| --- | --- |
| Cc1ccc2c(c1)NC(=O)C2(O)c1cc(Cl)ccc1O (centres unmarked) [Compound 8] | > 200 |

The compounds below were run against T1, IL-1β (assay: protein-observed 1H-13C-HMQC NMR binding (I/Io of Leu60 Cδ1H3)). Conditions: not given.
Set-up: Mature hIL-1β was expressed in Escherichia coli; made in house; host or cells: Escherichia coli BL21 (DE3), pET17b
Experimental: ^1H–^13C- and ^1H–^15N-HMQC spectra were recorded on Bruker AVANCE 600 MHz and 800 MHz spectrometers equipped with TXI-cryocooled probeheads. In ligand binding experiments, protein concentrations were typically 50 μM in PBS, pH 7.4. Backbone assignments of hIL-1β in the ligand-bound state and unliganded state were obtained by a combination of a 3D triple resonance experiment HNCACB and a ^15N-edited NOESY spectrum, which were processed using TOPSPIN 3.2 and analyzed using CcpNmr AnalysisAssign 3.1.0[46]. ^15N-CEST experiments were run at weak B1 radiofrequency fields of 25 and 12.5 Hz on a Bruker AVANCE 800 MHz spectrometer with 113 increments and a total sweep width of 28 ppm in the pseudo-3D dimension. Peak intensities were extracted by fitting pseudo-Voigt lineshape models using peakipy (https://github.com/j-brady/peakipy). Fitted peak intensities were subsequently used to generate CEST profiles, and exchange parameters were fitted using ChemEx (https://github.com/gbouvignies/ChemEx).
Supplementary Figure 2. 13C-NMR and 19F-NMR reporter assays to monitor early
13C-HMQC spectra of hIL-1b (50 µM) were acquired in the presence (red) and absence (blue) of 500
µM compound and rows were extracted at the w1-frequency of the peak corresponding to Leu60 […]

| Structure (SMILES) | binding to hIL-1β by protein-observed NMR |
| --- | --- |
| Cc1ccc2c(c1)N(C)C(=O)C2(O)c1cc(C(C)C)ccc1O (centres unmarked) [Compound 4] | lack of binding |
| COc1ccc(Cl)cc1C1(O)C(=O)Nc2cc(C(F)(F)F)ccc21 (centres unmarked) [Compound 5] | lack of binding |

Same assay, conditions: hIL-1β 50 µM, 500 µM compound

| Structure (SMILES) | I/Io (ratio of peak intensities of Leu60 Cδ1H3 in 1H-13C-HMQC spectra in presence and absence of ligand) |
| --- | --- |
| Cc1ccc2c(c1)NC(=O)C2(O)c1cc(C(C)C)ccc1O (centres unmarked) [Compound 3] | 0.19 ± 0.03 (N = 2) |
| Cc1ccc2c(c1)N(C)C(=O)C2(O)c1cc(C(C)C)ccc1O (centres unmarked) [Compound 4] | 0.98 ± 0.06 (N = 2) |
| COc1ccc(Cl)cc1C1(O)C(=O)Nc2cc(C(F)(F)F)ccc21 (centres unmarked) [Compound 5] | 0.99 ± 0.06 (N = 2) |
| Cc1ccc2c(c1)NC(=O)C2(O)c1cc(Cl)ccc1O (centres unmarked) [Compound 8] | 0.18 ± 0.004 (N = 2) |
| Cc1ccc(O)c(C2(O)C(=O)Nc3cc(C(F)(F)F)ccc32)c1 (centres unmarked) [Compound 13] | 0.4 (N = 1) |

Same assay, conditions: source data

| Structure (SMILES) | NMR I/Io values, Mean | NMR I/Io values, individual experiments (Exp1-2) |
| --- | --- | --- |
| Cc1ccc2c(c1)NC(=O)C2(O)c1cc(C(C)C)ccc1O (centres unmarked) [Compound 3] | 0.19 | 0.17 and 0.21 |
| Cc1ccc2c(c1)N(C)C(=O)C2(O)c1cc(C(C)C)ccc1O (centres unmarked) [Compound 4] | 0.98 | 0.94 and 1.02 |
| COc1ccc(Cl)cc1C1(O)C(=O)Nc2cc(C(F)(F)F)ccc21 (centres unmarked) [Compound 5] | 0.99 | 0.95 and 1.03 |
| Cc1ccc2c(c1)NC(=O)C2(O)c1cc(Cl)ccc1O (centres unmarked) [Compound 8] | 0.18 | 0.18 |

What follows are compounds tested against T1, IL-1β (assay: TR-FRET IL-1β/hIL-1R1 receptor displacement assay). Conditions: read-out: TR-FRET IL-1β IC50.
Assay type: biochemical
Experimental: After 1 h incubation at room temperature, hIL-1R1 (1–332; Alexa 647 labeled; 50 nM final concentration) and anti-His-Europium W1024 (Perkin Elmer; Cat.No. AD0401, 1 nM final concentration) were added to a final volume of 10 μl per well. […] All experiments were run in triplicates.

| Structure (SMILES) | IC50 [µM] |
| --- | --- |
| Cc1ccc2c(c1)NC(=O)C2(O)c1cc(C(C)C)ccc1O (centres unmarked) [Compound 3] | > 400 |
| Cc1ccc2c(c1)N(C)C(=O)C2(O)c1cc(C(C)C)ccc1O (centres unmarked) [Compound 4] | > 500 |
| COc1ccc(Cl)cc1C1(O)C(=O)Nc2cc(C(F)(F)F)ccc21 (centres unmarked) [Compound 5] | > 530 |
| Cc1ccc2c(c1)NC(=O)C2(O)c1cc(Cl)ccc1O (centres unmarked) [Compound 8] | > 200 |
